# Test results from US20240390369A1, “METHODS FOR DETERMINING RESPONSIVENESS TO TYK2 INHIBITORS” (Bristol-Myers Squibb Company, priority 2021, published 2024).
# Tested on: patients with psoriatic arthritis
# Experiment: Phase 2 trial in psoriatic arthritis: ACR20 response at week 16
# Assay type: in vivo, human
# Settings: for Odds Ratio for ACR20 response / Interaction Term for ACR20 response (ratio of odds ratios): week 16
# Protocol: In a double-blind Phase 2 trial, 203 patients with psoriatic arthritis were randomized into three groups: deucravacitinib 6 mg once daily (N=70), deucravacitinib 12 mg once daily (N=67), or placebo (N=66). All subjects had active psoriatic arthritis according to the Classification Criteria for Psoriatic Arthritis (CASPAR); for active disease, these criteria required ≥3 tender joint count, ≥3 swollen joint count, and a C-reactive protein level above 3 mg/L. Other inclusion criteria included the following: presence of at least one plaque psoriasis lesion, and prior treatment failure with a non-biologic disease modifying anti-rheumatic drug, a non-steroidal anti-inflammatory drug, or a steroid. With respect to treatment history, approximately 70% of subjects had not received prior treatment with a biologic and were biologic naïve, while up to 30% of subjects had failed or had been intolerant to one TNF-inhibitor (TNF=Tumor necrosis factor, also known as TNFα). Randomization was stratified by prior TNF-inhibitor use (experienced/naïve) and body weight (<90 kg and ≥90 kg).
# Clinical measures included the Psoriasis […] (PASI) score for skin psoriasis, American College of Rheumatology 20 (ACR20) response, Psoriatic Arthritis Disease Activity Score (PASDAS), Health Assessment Questionnaire-Disability Index (HAQ-DI), and Disease Activity Score 28 CRP (DAS28). To evaluate the predictive value of different protein measurements for the clinical response to deucravacitinib, baseline protein concentrations for responders and non-responders, as defined by ACR20 or PASI75 at week 16, were compared for each arm (placebo, 6 mg deucravacitinib once-daily, and 12 mg deucravacitinib once-daily).
# Boxplots for baseline protein level by response were generated with a horizontal line indicating the median protein level at baseline. For each treatment arm, a two-sample t-test was performed to test whether mean baseline serum protein level was different in responders versus non-responders. A Wilcoxon rank sum test (Mann-Whitney U test) was also performed to evaluate the difference in median serum protein level between responders and non-responders. Further, barplots of ACR20 and PASI75 response rate at week 16 for each treatment arm were generated for all subjects (protein level high and protein level low subjects, dichotomized according to median baseline level). Line plots of ACR20 and PASI75 response rate over time for each treatment arm were generated for protein level high and protein level low groups. Logistic regression models were also fit to evaluate associations between baseline protein levels and clinical outcome.
# For certain analyses described herein, patients were dichotomized by median values (e.g., of the proteins listed above or other measures) into “high” and “low” groups, such that the high group had values above the median and the low group had values less than or equal to the median.
# In addition, logistic regression models were fit for response measures ACR20 and PASI75, to generate the odds ratio of each of the deucravacitinib treatment arms versus placebo, in BD2-high and BD2-low groups. The following logistic regression models were used: • For ACR20 response status: ACR20 (Y/N)=treatment arm+BD2 group+treatment arm*BD2 group+TNF-inhibitor use+baseline weight (continuous). • For PASI75 response status: PASI75 (Y/N)=treatment arm+BD2 group+treatment arm*BD2 group+TNF-inhibitor use+baseline weight (continuous). […] FIGS. 26-31 are forest plots summarizing the logistic regression results of these models (for BD2 and other biomarkers described herein); each “N,” for “Placebo” and “Deucrava,” represents the number of responders in that group. […]
structure (smiles),measurement,setting,value
"[2H]C([2H])([2H])NC(=O)c1nnc(NC(=O)C2CC2)cc1Nc1cccc(-c2ncn(C)n2)c1OC [deucravacitinib, 6-(cyclopropanecarboxamido)-4-((2-methoxy-3-(1-methyl-1H-1,2,4-triazol-3-yl)phenyl)amino)-N-(methyl-d3)pyridazine-3-carboxamide]",Odds Ratio for ACR20 response,"BD2 high (baseline above median 9,265 ng/L), 6 mg QD vs placebo",4.54
same,Odds Ratio for ACR20 response,"BD2 high (baseline above median 9,265 ng/L), 12 mg QD vs placebo",7.33
same,Odds Ratio for ACR20 response,"BD2 high, treatment arms combined vs placebo",5.645
same,Odds Ratio for ACR20 response,"BD2 low, 6 mg QD vs placebo",1.44
same,Odds Ratio for ACR20 response,"BD2 low, 12 mg QD vs placebo",2.15
same,Odds Ratio for ACR20 response,"BD2 low, treatment arms combined vs placebo",1.767
same,"Odds Ratio, ACR20 response status","CRP high, 6 mg QD vs placebo",2.167
same,"Odds Ratio, ACR20 response status","CRP high, 12 mg QD vs placebo",5.140
same,"Odds Ratio, ACR20 response status","CRP high, treatment arms combined vs placebo",3.215
same,"Odds Ratio, ACR20 response status","CRP low, 6 mg QD vs placebo",2.756
same,"Odds Ratio, ACR20 response status","CRP low, 12 mg QD vs placebo",2.676
same,"Odds Ratio, ACR20 response status","CRP low, treatment arms combined vs placebo",2.715
same,"Odds Ratio, ACR20 response status","CRP-high, 6 mg QD vs placebo, adjusted for baseline DAS28",2.168
same,"Odds Ratio, ACR20 response status","CRP-high, 12 mg QD vs placebo, adjusted for baseline DAS28",5.154
same,"Odds Ratio, ACR20 response status","CRP-low, 6 mg QD vs placebo, adjusted for baseline DAS28",2.752
same,"Odds Ratio, ACR20 response status","CRP-low, 12 mg QD vs placebo, adjusted for baseline DAS28",2.670
same,Odds Ratio for ACR20 response,"IL-17A high (baseline above median 0.575 ng/L), 6 mg QD vs placebo",4.30
same,Odds Ratio for ACR20 response,"IL-17A high (baseline above median 0.575 ng/L), 12 mg QD vs placebo",5.95
same,ACR20 response rate at week 16,"IL-17A high group, 6 mg QD and 12 mg QD vs placebo (FIG. 22)",higher in both 6 mg QD and 12 mg QD treatment arms compared to placebo in the IL-17-high group
same,Odds Ratio for ACR20 response,"IL-17A high, treatment arms combined vs placebo",4.990
same,Odds Ratio for ACR20 response,"IL-17A low, 6 mg QD vs placebo",1.39
same,Odds Ratio for ACR20 response,"IL-17A low, 12 mg QD vs placebo",2.14
same,Odds Ratio for ACR20 response,"IL-17A low, treatment arms combined vs placebo",1.723
same,ACR20 response rate at week 16,IL-19-high versus IL-19-low group (FIG. 15),a much more pronounced treatment effect (indicating a dose response effect of deucravacitinib) was observed in the IL-19-high group than in the IL-19-low group
same,Odds Ratio for ACR20 response,"IL-19 high (baseline above median 36 ng/L), 6 mg QD vs placebo",4.68
same,Odds Ratio for ACR20 response,"IL-19 high (baseline above median 36 ng/L), 12 mg QD vs placebo",11.44
same,Odds Ratio for ACR20 response,"IL-19 high, treatment arms combined vs placebo",6.679
same,Odds Ratio for ACR20 response,"IL-19 low, 6 mg QD vs placebo",1.41
same,Odds Ratio for ACR20 response,"IL-19 low, 12 mg QD vs placebo",1.56
same,Odds Ratio for ACR20 response,"IL-19 low, treatment arms combined vs placebo",1.487
same,Interaction Term for ACR20 response (ratio of odds ratios),"adjusted for baseline DAS28, 6 mg QD vs placebo: BD2-high versus BD2-low",3.06
same,Interaction Term for ACR20 response (ratio of odds ratios),"adjusted for baseline DAS28, 6 mg QD vs placebo: IL-17A-high versus IL-17A-low",3.08
same,Interaction Term for ACR20 response (ratio of odds ratios),"adjusted for baseline DAS28, 6 mg QD vs placebo: IL-19-high versus IL-19-low",3.32
same,Interaction Term for ACR20 response (ratio of odds ratios),"adjusted for baseline DAS28, 12 mg QD vs placebo: BD2-high versus BD2-low",3.42
same,Interaction Term for ACR20 response (ratio of odds ratios),"adjusted for baseline DAS28, 12 mg QD vs placebo: IL-17A-high versus IL-17A-low",2.75
same,Odds Ratio for ACR20 response,"adjusted for baseline DAS28, All patients, 12 mg QD vs placebo",3.62
same,Odds Ratio for ACR20 response,"adjusted for baseline DAS28, BD2-high, 6 mg QD vs placebo",4.42
same,Odds Ratio for ACR20 response,"adjusted for baseline DAS28, BD2-low, 6 mg QD vs placebo",1.44
same,Odds Ratio for ACR20 response,"adjusted for baseline DAS28, BD2-low, 12 mg QD vs placebo",2.14
same,Odds Ratio for ACR20 response,"adjusted for baseline DAS28, IL-17A-high, 6 mg QD vs placebo",4.27
same,Odds Ratio for ACR20 response,"adjusted for baseline DAS28, IL-17A-high, 12 mg QD vs placebo",5.92
same,Odds Ratio for ACR20 response,"adjusted for baseline DAS28, IL-17A-low, 6 mg QD vs placebo",1.39
same,Odds Ratio for ACR20 response,"adjusted for baseline DAS28, IL-19-high, 6 mg QD vs placebo",4.66
same,Odds Ratio for ACR20 response,"adjusted for baseline DAS28, IL-19-high, 12 mg QD vs placebo",11.47
same,Odds Ratio for ACR20 response,"adjusted for baseline DAS28, IL-19-low, 6 mg QD vs placebo",1.40
same,Odds Ratio for ACR20 response,"adjusted for baseline DAS28, IL-19-low, 12 mg QD vs placebo",1.56
same,Interaction Term for ACR20 response (ratio of odds ratios),treatment arms combined vs placebo: BD2 high versus BD2 low,3.195
same,"Interaction Term: treatment arm*CRP group, ACR20",treatment arms combined vs placebo: CRP high versus CRP low,1.184
same,Interaction Term for ACR20 response (ratio of odds ratios),treatment arms combined vs placebo: IL-17A high versus IL-17A low,2.886
same,Interaction Term for ACR20 response (ratio of odds ratios),treatment arms combined vs placebo: IL-19 high versus IL-19 low,4.491
